# Source: patent US9758484B2 (Asieris Pharmaceutical Technologies Co., Ltd., priority 2013, dated 2017)
# Where “and” joins values, the source holds several entries; their conditions need not be identical. Equal entries are not always repeated.
# What was measured:
# [1] = Solubility tests of nitroxoline and nitroxoline salts in aqueous buffers and water; format: physicochemical; details: aqueous buffers pH 1.2 to 8, 25 °C, pH 1.2, aqueous buffer, thermodynamic from solid, all pHs tested, from pH 1.2 to 8; read-out: solubility at all pHs tested
# Protocol: 1) Aqueous buffer solutions with varying pH were prepared as follows: • i. Water: distilled water; • ii. pH=1.2 buffer: 7.65 mL 36.5% HCl solution was diluted to 1000 mL with water; • iii. pH=4.5 buffer: 18 g sodium acetate and 9.8 mL acetic acid were diluted to 1000 mL with water; • iv. pH=5.0 buffer: sodium hydroxide was added to 0.2 mol/L monosodium phosphate (NaH2PO4) solution until the pH was adjusted to 5.0; • v. pH=6.0 buffer: 18 g sodium acetate were added into 20 mL acetic acid solution (1 M), and the mixture was diluted to 500 mL with water; • vi. pH=6.8 buffer: 250 mL of 0.2 M monopotassium phosphate (KH2PO4) solution were added to 118 mL of 0.2 M sodium hydroxide solution, and the mixture was diluted to 1000 mL with water; • vii. pH=7.4 buffer: 1.36 g monopotassium phosphate (KH2PO4) were added to 79 mL of 0.1 M sodium hydroxide solution, and the mixture was diluted to 200 mL with water; and • viii pH=8.0 buffer: 5.59 g potassium biphosphate (K2HPO4) and 0.41 g monopotassium. phosphate (KH2PO4) were added to 1000 mL water and mixed.
# 2) Solubility tests were performed generally as follows:
# Under a temperature of 25±2° C., 10 mg of each salt sample was weighed and added to a 100 mL volumetric bottle. 0.25 mL buffer was added to the bottle, which was shaken vigorously for 30 seconds every 5 min.
# If the sample was not completely dissolved, 0.7 mL of the same buffer was added, and dissolution was observed by the same shaking procedure.
# If the sample was not completely dissolved, 8.5 mL of the same buffer was added, and dissolution was observed by the same shaking procedure.
# If the sample was not completely dissolved, 85 mL of the same buffer was added, and dissolution was observed by the same shaking procedure.
# [2] = In vivo urinary excretion of nitroxoline and nitroxoline salts in beagle dogs
# Protocol: Urine samples were collected in the following periods of time: 0-2, 2-4, 4-6, 6-8, 8-24 h. Urine samples were analyzed by LC/MS/MS method utilizing an Agilent 1100 HPLC system with a CTC auto-sampler, an AB API4000 mass spectrometer, and a column of ACQUITY UPLC BEH C18 (2.1*50 mm) Dexamethasone was used as an internal standard. […] The range of linearity was determined to be 25˜5000 ng/mL.
# (§1) The same study was repeated with APL-1092, nitroxoline lysine salt.
# [3] = In vivo urinary excretion of nitroxoline and nitroxoline salts in mice; parameters: species or system CD-1 ICR mice; details: 41.8 mg/kg
# Protocol: Urine samples were collected in the following periods of time: 0-2, 2-6, 6-24 h. Due to the small volume of the urine from mice, the collecting system in the cage was washed with water at each collecting time. Urine samples and their wash samples were analyzed according to the same methods used in the beagle dog study (Example 24).
# as §1
# [4] = humans, orally administered; cited from earlier work
smiles,measurement,setting,value
"O=[N+]([O-])c1ccc(O)c2ncccc12 [APL-1202, nitroxoline, reference compound]",solubility at 30 min,[1],< 100 µg/mL
same,24-Hr Accumulated drug in the urine,"[2]; In Dogs, 75 mg APL-1202 or equivalent amount",97 µg
same,f (%): percentage of total mass of excreted drug versus the dose amount,"[2]; individual dogs, oral tablet, 75 mg nitroxoline equivalent",0.074% and 0.11% and 0.205%
same,Total mass of nitroxoline in urine,"[2]; individual dogs, oral tablet, 75 mg nitroxoline equivalent, 0-24 hr",55350 ng and 82489 ng and 153888 ng
same,"Mass of nitroxoline in urine, 0-2 hr","[2]; individual dogs, oral tablet, 75 mg nitroxoline equivalent, collection 0-2 hr",5670 ng and 60420 ng and 105600 ng
same,"Mass of nitroxoline in urine, 2-4 hr","[2]; individual dogs, oral tablet, 75 mg nitroxoline equivalent, collection 2-4 hr",0 ng and 13005 ng and 5502 ng
same,"Mass of nitroxoline in urine, 4-6 hr","[2]; individual dogs, oral tablet, 75 mg nitroxoline equivalent, collection 4-6 hr",0 ng and 817 ng and 28696 ng
same,"Mass of nitroxoline in urine, 6-8 hr","[2]; individual dogs, oral tablet, 75 mg nitroxoline equivalent, collection 6-8 hr",0 ng and 2582 ng and 5808 ng
same,"Mass of nitroxoline in urine, 8-24 hr","[2]; individual dogs, oral tablet, 75 mg nitroxoline equivalent, collection 8-24 hr",49680 ng and 5664 ng and 8282 ng
same,"f (%): percentage of total mass of excreted drug versus the dose amount, Mean","[2]; mean of dogs, oral tablet, 75 mg nitroxoline equivalent",0.13%
same,"Total mass of nitroxoline in urine, Mean","[2]; mean of dogs, oral tablet, 75 mg nitroxoline equivalent, 0-24 hr",97242 ng
same,"Mass of nitroxoline in urine, 0-2 hr, Mean","[2]; mean of dogs, oral tablet, 75 mg nitroxoline equivalent, collection 0-2 hr",57230 ng
same,"Mass of nitroxoline in urine, 2-4 hr, Mean","[2]; mean of dogs, oral tablet, 75 mg nitroxoline equivalent, collection 2-4 hr",9254 ng
same,"Mass of nitroxoline in urine, 4-6 hr, Mean","[2]; mean of dogs, oral tablet, 75 mg nitroxoline equivalent, collection 4-6 hr",14757 ng
same,"Mass of nitroxoline in urine, 6-8 hr, Mean","[2]; mean of dogs, oral tablet, 75 mg nitroxoline equivalent, collection 6-8 hr",4195 ng
same,"Mass of nitroxoline in urine, 8-24 hr, Mean","[2]; mean of dogs, oral tablet, 75 mg nitroxoline equivalent, collection 8-24 hr",21209 ng
same,24-Hr Accumulated drug in the urine,"[3]; In Mice, 41.8 mg/Kg APL-1202 or equivalent dose",79.8 µg
same,Total mass of nitroxoline in urine and wash,"[3]; individual mice, oral, equivalent of 41.8 mg/Kg nitroxoline, 0-24 hr",124391 ng and 50517 ng and 23093 ng and 41201 ng and 88137 ng and 151622 ng
same,f (%): percentage of total mass of excreted drug versus the dose amount,"[3]; individual mice, oral, equivalent of 41.8 mg/Kg nitroxoline",15.2% and 6.17% and 2.94% and 5.24% and 10.9% and 19.5%
same,"Mass of nitroxoline, 0~2 wash","[3]; individual mice, oral, equivalent of 41.8 mg/Kg nitroxoline, cage wash 0~2 hr",2856 ng and 6652.8 ng and 784 ng and 4212 ng and 8250 ng and 2352 ng
same,"Mass of nitroxoline, 2~6 wash","[3]; individual mice, oral, equivalent of 41.8 mg/Kg nitroxoline, cage wash 2~6 hr",1283 ng and 5325 ng and 957 ng and 2904 ng and 1530 ng and 346 ng
same,"Mass of nitroxoline, 6~24 wash","[3]; individual mice, oral, equivalent of 41.8 mg/Kg nitroxoline, cage wash 6~24 hr",249 ng and 1428 ng and 2341 ng and 1558 ng and 1102 ng and 152 ng
same,"Mass of nitroxoline in urine, 0-2 hr","[3]; individual mice, oral, equivalent of 41.8 mg/Kg nitroxoline, urine 0-2 hr",109552 ng and 10584 ng and 1360 ng and 21035 ng and 61040 ng and 137700 ng
same,"Mass of nitroxoline in urine, 2-6 hr","[3]; individual mice, oral, equivalent of 41.8 mg/Kg nitroxoline, urine 2-6 hr",10404 ng and 26418 ng and 17600 ng and 11412 ng and 14715 ng and 11000 ng
same,"Mass of nitroxoline in urine, 6-24 hr","[3]; individual mice, oral, equivalent of 41.8 mg/Kg nitroxoline, urine 6-24 hr",47.8 ng and 109 ng and 50.9 ng and 81 ng and 1500 ng and 71.5 ng
same,"Total mass of nitroxoline in urine and wash, Mean","[3]; mean of mice, oral, equivalent of 41.8 mg/Kg nitroxoline, 0-24 hr",79827 ng
same,"f (%): percentage of total mass of excreted drug versus the dose amount, Mean","[3]; mean of mice, oral, equivalent of 41.8 mg/Kg nitroxoline",10%
same,"Mass of nitroxoline, 0~2 wash, Mean","[3]; mean of mice, oral, equivalent of 41.8 mg/Kg nitroxoline, cage wash 0~2 hr",4184 ng
same,"Mass of nitroxoline, 2~6 wash, Mean","[3]; mean of mice, oral, equivalent of 41.8 mg/Kg nitroxoline, cage wash 2~6 hr",2057 ng
same,"Mass of nitroxoline, 6~24 wash, Mean","[3]; mean of mice, oral, equivalent of 41.8 mg/Kg nitroxoline, cage wash 6~24 hr",1138 ng
same,"Mass of nitroxoline in urine, 0-2 hr, Mean","[3]; mean of mice, oral, equivalent of 41.8 mg/Kg nitroxoline, urine 0-2 hr",56879 ng
same,"Mass of nitroxoline in urine, 2-6 hr, Mean","[3]; mean of mice, oral, equivalent of 41.8 mg/Kg nitroxoline, urine 2-6 hr",15258 ng
same,"Mass of nitroxoline in urine, 6-24 hr, Mean","[3]; mean of mice, oral, equivalent of 41.8 mg/Kg nitroxoline, urine 6-24 hr",310 ng
same,half-life (t1/2),[4],2.63 h
